# Measurements reported in patent US12605358B2, “Composition for preventing or treating nervous system diseases comprising compound that inhibits mTOR signaling pathway as active ingredient” (ALIAD BIOPHARMA, priority 2021, dated 2026).
# Experiments:
# 5xFAD transgenic mice = assay: Senile plaques removal, Thioflavin-S staining of brain slices; assay type: in vivo
# Procedure: 5xFAD animals were administered with HN-1703 at three doses for 14 days to male heterozygotes aged 6 months (all born within 3 days). The behaviors of mice were measured in a dark cycle in which the mice were active while alternating light and dark in a 12-hour cycle in a breeding room chamber, and the mice were freely accessible to food and water and bred in compliance with experimental animal ethical guidelines of Kyung Hee University. In each group, the HN-1703 was intraperitoneally injected at the same time once a day in a volume of 100 μl to 12 mice in a normal group (wild type littermate), 9 5xFAD mice in a vehicle (DMSO administration), 8 5xFAD mice in a 5 mg/kg administered group, 9 5xFAD mice in a 10 mg/kg administered group, and 9 5xFAD mice in a 20 mg/kg administered group. […] In a behavioral measurement room, humidity (40 to 60%) and temperature (22 to 26° C.) were maintained, and reflected light was maintained to avoid sound and light effects. Behavioral measures were measured in Y-maze, Morris Water Maze, and Passive Avoidance test for 18 days in sequence.
# A brain slice immunostaining method was modified and used as described in Heo H et al. (J Ethnopharmacol, 2009). Mice were transcardially perfused with 4% PFA. After being immersed and fixed in 4% PFA for 4 hours, the brain tissue was unfrozen in 30% sucrose, frozen in an optimal cutting temperature (OCT) mixture, and stored at −80° C. Brain tissue slices were sectioned in a coronal direction at a thickness of 35 μm. The brain tissue slices were immersed in a storage solution (30% glycerol, 30% ethylene glycol, PBS) and stored at 4° C. The stored brain slices were permeabilized in 0.5% Triton X-100 for 20 minutes and shaken in 2 N HCl for 30 minutes at 37° C. Then, the brain slices were blocked in a free-floating state for 2 hours in 15% standard serum, 3% bovine serum albumin (BSA, bio-WORLD, Dublin, OH, USA) and 0.1% Triton X-100. The slices were shaken with a first antibody for 16 hours at 4° C. Thereafter, a second antibody complementary to the first antibody was attached at room temperature (22±1° C.) for 45 minutes. Then, the nuclei were washed with physiological saline (PBS) containing 1 μg/ml PI (propidiumiodide, Sigma) or DAPI (1:4000), and then placed on a slide glass and sealed using an aqueous mount, and observed under a confocal scanning microscope for tissue observation (LSM 810 Carl Zeiss, Oberkochen, Germany).
# Brain slices segmented in a coronal direction were selected from the front to the back of the brain by one slice every 5 slices, and 5 to 11 slices for each animal's brain were co-stained with thioflavin-S and DAPI.
# FIG. 7 is confocal scanning micrographs of the hippocampal dentate gyrus, and the entorhinal cortex and temporal lobe of the cerebral cortex, after staining senile plaques by treating the brain slice with Thioflavin-S, and FIG. 8 illustrates quantifying the entire area and staining intensity of the senile plaques stained with Thioflavin-S.
# [1] = test system: primary cultured cerebral neurons; assay: Aβ accumulation (6E10) and LC3 double staining; assay type: cell-based, rat; details: Aβ 0.5 or 1 μM, HN-1703 0.1 or 0.5 μM, 12 or 24 hours, FIG. 4
# Procedure: Primary neurons culture was performed from the cerebral cortex of E16 embryos on embryonic day 16 of […] (SD, Orient Bio). Primary neurons culture (cortical neurons culture) was performed from the cerebral cortex of rat (SD, Orient Bio) embryonic 16-day (E16) embryos. The left and right hemispheres of the extracted brain were separated using sterile tweezers under a dissecting microscope, the meninges were peeled off, and then the cerebral cortex region was cut with No. 5 tweezers and collected in a Ca^2+/Mg^2+-free HBSS (Invitrogen), and mixed with an equal amount of 0.25% trypsin in a 15 ml tube and treated in a 37° C. water bath for 10 to 15 minutes. Thereafter, trypsin was inactivated by removing a portion of trypsin, leaving 1 to 2 ml of trypsin, and then adding the same amount of 20% FBS-DMEM. […]
# As confirmed in Experimental Example 2 that HN-1703 may effectively promote autophagy, it was evaluated whether HN-1703 may remove Aβ oligomers accumulated in cells. In the rat embryonic (E16) cerebral cortex region, primary cultured cerebral neurons were treated with […] or 1 μM Aβ and 0.1 μM or 0.5 μM HN-1703 for 12 or 24 hours, and accumulated Aβ was stained with a 6E10 antibody and autophagy formation was simultaneously double-stained with an LC3 antibody and measured, and cell nuclei were labeled with DAPI. […]
# [2] = compared to the 5xFAD-DMSO control group, FIG. 8
compound,measurement,setting,value
"COc1cc(OC)c2c(=O)c3cc4c(cc3oc2c1)OCO4 [HN-1703, 7,9-dimethoxy-10H-[1,3]dioxolo[4,5-b]xanthen-10-one]",reduction of senile plaques compared to the 5xFAD-DMSO group,"5xFAD transgenic mice; 20 mg/kg, dentate gyrus, FIG. 7",≥ 70%
same,senile plaques stained with Thioflavin-S,"5xFAD transgenic mice; 5 to 20 mg/kg, hippocampal dentate gyrus, entorhinal cortex, temporal lobe, FIG. 7",reduced in a dose-dependent manner
same,number of senile plaques having sizes of 10 to 20 μm and 20 μm or more,"5xFAD transgenic mice; all brain regions tested, compared to the 5xFAD-DMSO control group, FIG. 8",decreased in a dose-dependent manner
same,entire area of senile plaques,5xFAD transgenic mice; [2],decreased in a dose-dependent manner
same,staining intensity of senile plaques,5xFAD transgenic mice; [2],decreased in a dose-dependent manner
same,Aβ accumulated in cells removed,[1],≥ 50%
same,increase of the area of LC3 puncta,[1]; concentration-dependent,≥ 4 times
